# Data published in ChEMBL document CHEMBL1148540, “Tetrahydrobenzothiophene inhibitors of hepatitis C virus NS5B polymerase” (Bioorg Med Chem Lett, 2006).
# What was measured:
# [1] = target: T1, RNA-directed RNA polymerase (Hepacivirus hominis, UniProt O39930); assay: Inhibitory activity against delta-21 C-terminally truncated HCV 1b (BB7 isolate) RNA dependent RNA polymerase; set-up: species or system Hepatitis C virus subtype 1b
# [2] = Permeability across Caco-2 cell membrane; format: ADME, cell-based; conditions: human, read-out: permeability
# [3] = target: T1, RNA-directed RNA polymerase; assay: Inhibitory activity against HCV 4a NS5B full length RNA dependent RNA polymerase; set-up: species or system Hepatitis C virus subtype 4a
# T1 sequence (O39930 whole entry, the tested form may be a part): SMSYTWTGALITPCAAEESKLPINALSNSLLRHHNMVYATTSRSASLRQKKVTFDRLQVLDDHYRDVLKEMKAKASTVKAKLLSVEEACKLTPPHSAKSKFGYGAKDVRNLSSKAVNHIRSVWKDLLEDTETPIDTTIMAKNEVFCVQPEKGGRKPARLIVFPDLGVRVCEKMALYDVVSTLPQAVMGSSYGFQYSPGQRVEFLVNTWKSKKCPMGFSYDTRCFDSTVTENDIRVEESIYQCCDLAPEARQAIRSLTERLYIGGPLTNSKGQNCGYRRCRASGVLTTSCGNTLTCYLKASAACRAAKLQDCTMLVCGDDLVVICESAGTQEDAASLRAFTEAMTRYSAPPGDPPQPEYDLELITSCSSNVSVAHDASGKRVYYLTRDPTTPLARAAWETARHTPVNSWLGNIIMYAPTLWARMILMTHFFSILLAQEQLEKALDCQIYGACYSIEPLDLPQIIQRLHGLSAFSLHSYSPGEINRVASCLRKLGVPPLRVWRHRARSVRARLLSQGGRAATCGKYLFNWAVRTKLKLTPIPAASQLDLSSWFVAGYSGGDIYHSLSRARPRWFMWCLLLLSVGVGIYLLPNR
Compound,IC50 [1] [nM],Papp [2] [×10⁻⁶ cm/s],IC50 [3] [nM]
CCOC(=O)c1c(NC(=O)NS(=O)(=O)c2ccccc2C(F)(F)F)sc2c1CCC(C)(C)C2,200,> 3,50
CCOC(=O)c1c(NC(=O)NS(=O)(=O)c2ccccc2OC(F)(F)F)sc2c1CCC(C)(C)C2,400,> 3,150
CCOC(=O)c1c(NC(=O)NS(=O)(=O)N2CCOCC2)sc2c1CCC(C)(C)C2,2500,–,300
CCOC(=O)c1c(NC(=O)NS(=O)(=O)c2ccc(C)cc2)sc2c1C(C)CCC2 (centres undefined),–,–,2000
CCOC(=O)c1c(NC(=O)NS(=O)(=O)N2CCCCC2)sc2c1CCC(C)(C)C2,1000,–,200
CCOC(=O)c1c(NC(=O)NS(=O)(=O)c2ccnn2C)sc2c1CCC(C)(C)C2,260,> 3,50
CCOC(=O)c1c(NC(=O)NS(=O)(=O)N2CCN(C)CC2)sc2c1CCC(C)(C)C2,2000,–,400
CCOC(=O)c1c(NC(=O)NS(=O)(=O)N2CCCCCC2)sc2c1CCC(C)(C)C2,1100,–,500
CCOC(=O)c1c(NC(=O)NS(=O)(=O)c2ccccc2)sc2c1CCC(C)(C)C2,200,> 3,90
CCOC(=O)c1c(NC(=O)NS(=O)(=O)c2ccc(C)cc2)sc2c1CC(C)CC2 (centres undefined),–,–,500
CCOC(=O)c1c(NC(=O)NS(=O)(=O)c2nccn2C)sc2c1CCC(C)(C)C2,150,> 3,80
CCOC(=O)c1c(NC(=O)NS(=O)(=O)c2ccc(C)cc2)sc2c1CCCC2,–,–,1000
CCOC(=O)c1c(NC(=O)NS(=O)(=O)N2CCCC2)sc2c1CCC(C)(C)C2,400,–,200
CCOC(=O)c1c(NC(=O)c2nccnc2C(=O)O)sc2c1CCCC2,–,–,4000
CCOC(=O)c1c(NC(=O)NS(=O)(=O)c2cccc(OC)c2)sc2c1CCCC2,–,–,1200
CCOC(=O)c1c(NC(=O)NS(=O)(=O)c2ccc([N+](=O)[O-])cc2)sc2c1CCCC2,–,–,2800
CCOC(=O)c1c(NC(=O)NS(C)(=O)=O)sc2c1CCCC2,–,–,3800

Compound,IC50 [1] [nM],Papp [2] [×10⁻⁶ cm/s],IC50 [3] [nM]
CCOC(=O)c1c(NC(=O)NS(=O)(=O)c2cccc(C)c2)sc2c1CCCC2,–,–,900
CCOC(=O)c1c(NC(=O)NS(=O)(=O)c2ccc(C)cn2)sc2c1CCC(C)(C)C2,200,> 3,50
CCOC(=O)c1c(NC(=O)NS(=O)(=O)c2ccccc2)sc2c1CCCC2,–,–,700
CCOC(=O)c1c(NC(=O)NS(=O)(=O)N2CCc3ccccc3C2)sc2c1CCC(C)(C)C2,600,–,100
CCOC(=O)c1c(NC(=O)NS(=O)(=O)c2ccc(F)cc2)sc2c1CCC(C)(C)C2,500,> 3,60
CCOC(=O)c1c(NC(=O)NS(=O)(=O)N2CCc3ccccc32)sc2c1CCC(C)(C)C2,260,–,200
CCOC(=O)c1c(NC(=O)NS(=O)(=O)c2ccc(F)cc2)sc2c1CCCC2,–,–,1700
CCOC(=O)c1c(NC(=O)NS(=O)(=O)c2ccc(C)cc2)sc2c1CCC(C)(C)C2,400,> 3,90
CCOC(=O)c1c(NC(=O)NS(=O)(=O)c2cccc3ccccc23)sc2c1CCCC2,–,–,700
CCOC(=O)c1c(NC(=O)NS(=O)(=O)c2ccccc2C)sc2c1CCCC2,–,–,900
CCCCS(=O)(=O)NC(=O)Nc1sc2c(c1C(=O)OCC)CCCC2,–,–,4900
CCOC(=O)c1c(NC(=O)NS(=O)(=O)c2ccc(C)cc2)sc2c1CCC(C)C2 (centres undefined),–,–,200
CCOC(=O)c1c(NC(=O)NS(=O)(=O)c2ncccn2)sc2c1CCC(C)(C)C2,300,> 3,50
CCOC(=O)c1c(NC(=O)NS(=O)(=O)c2ccc(C#N)cc2)sc2c1CCC(C)(C)C2,400,> 3,90
CCOC(=O)c1c(NC(=O)NS(=O)(=O)c2ccc(Cl)cc2)sc2c1CCCC2,–,–,1000
CCOC(=O)c1c(NC(=O)NS(=O)(=O)c2ccccn2)sc2c1CCC(C)(C)C2,150,> 3,40
CCOC(=O)c1c(NC(=O)NS(=O)(=O)N2CCN(C(C)=O)CC2)sc2c1CCC(C)(C)C2,600,–,300
